Experimental findings from article PMC8214221, “Sequence determinants in the cathelicidin LL-37 that promote inflammation via presentation of RNA to scavenger receptors” (The Journal of Biological Chemistry, 2021) are described below.

The assay relates to TBK1 and IRF7 phosphorylation in NHEKs. Put plainly: Immunoblot of MAVS pathway signaling in NHEKs. To be noted: U1 dsRNA 2.5 μg/ml + peptide 2 μM, in comparison to U1 + LL-34 parent. It is filed as cell-based, human. An excerpt:
RNA-Seq was utilized to obtain a global transcriptomic profile and map unique immune pathways in NHEKs exposed to U1 dsRNA, LL-34 parent, Pep I24A, Pep L31A, and a combination of U1 dsRNA and LL-34 parent, Pep I24A, or Pep L31A. […] Similarly, 448 and 325 unique differentially regulated genes were observed after U1 + I24A and U1 + L31A treatments, respectively (Fig. 3, A and B and Fig. S2, A and B). […] These pathways included type 1 interferon signaling, cytokine signaling, response to external biotic stimulus, and cytokine-mediated signaling pathway. […] We verified the repression of mitochondrial antiviral signaling (MAVS) with immunoblot analysis. […]
Figure 3 LL-34 I24A and L31A mutations result in loss of innate immune vetting of U1 dsRNA leading to repressed activation of antiviral and innate immune pathways.A, Venn diagram for all differentially expressed genes from NHEKs treated with U1 dsRNA, LL-34-parent, and combinations of either U1 dsRNA and LL-34-parent. […] Protein expression of p-TBK1, TBK1, p-IRF7, IRF7, p-Akt, Akt, p-ERK1/2, and ERK1/2 was assessed with immunoblot. […]
Cells were lysed in complete radioimmunoprecipitation assay buffer with added 1× protease and Phosphatase Inhibitor Cocktail (Life Technologies). […] Total protein was quantified for each treatment with Bio-Rad Protein Assay (Bio-Rad). […]

Residues, ends and D or L forms follow the SMILES beside them.

In the case of `CC[C@H](C)[C@H](NC(=O)[C@H](CCCCN)NC(=O)[C@H](CCC(=O)O)NC(=O)[C@H](CCCCN)NC(=O)[C@H](CO)NC(=O)[C@H](CCCCN)NC(=O)[C@H](CCCNC(=N)N)NC(=O)[C@H](Cc1ccccc1)NC(=O)[C@H](Cc1ccccc1)NC(=O)[C@H](CC(=O)O)NC(=O)CNC(=O)[C@H](CC(C)C)NC(=O)[C@@H](N)CC(C)C)C(=O)NCC(=O)N[C@@H](CCCCN)C(=O)N[C@@H](CCC(=O)O)C(=O)N[C@@H](Cc1ccccc1)C(=O)N[C@@H](CCCCN)C(=O)N[C@@H](CCCNC(=N)N)C(=O)N[C@H](C(=O)N[C@H](C(=O)N[C@@H](CCC(N)=O)C(=O)N[C@@H](CCCNC(=N)N)C(=O)N[C@@H](C)C(=O)N[C@@H](CCCCN)C(=O)N[C@@H](CC(=O)O)C(=O)N[C@@H](Cc1ccccc1)C(=O)N[C@@H](CC(C)C)C(=O)N[C@@H](CCCNC(=N)N)C(=O)N[C@@H](CC(N)=O)C(=O)N[C@@H](CC(C)C)C(=O)N[C@H](C(=O)N1CCC[C@H]1C(=O)N[C@@H](CCCNC(=N)N)C(=O)O)C(C)C)C(C)C)[C@@H](C)CC` [LL-34—I24A] (H-LLGDFFRKSKEKIGKEFKRIVQRAKDFLRNLVPR-OH), the “Phosphorylation of TBK1 and IRF7” value is given as “Decreased phosphorylation”.
As for `CC[C@H](C)[C@H](NC(=O)[C@H](CCCCN)NC(=O)[C@H](CCC(=O)O)NC(=O)[C@H](CCCCN)NC(=O)[C@H](CO)NC(=O)[C@H](CCCCN)NC(=O)[C@H](CCCNC(=N)N)NC(=O)[C@H](Cc1ccccc1)NC(=O)[C@H](Cc1ccccc1)NC(=O)[C@H](CC(=O)O)NC(=O)CNC(=O)[C@H](CC(C)C)NC(=O)[C@@H](N)CC(C)C)C(=O)NCC(=O)N[C@@H](CCCCN)C(=O)N[C@@H](CCC(=O)O)C(=O)N[C@@H](Cc1ccccc1)C(=O)N[C@@H](CCCCN)C(=O)N[C@@H](CCCNC(=N)N)C(=O)N[C@H](C(=O)N[C@H](C(=O)N[C@@H](CCC(N)=O)C(=O)N[C@@H](CCCNC(=N)N)C(=O)N[C@H](C(=O)N[C@@H](CCCCN)C(=O)N[C@@H](CC(=O)O)C(=O)N[C@@H](Cc1ccccc1)C(=O)N[C@@H](CC(C)C)C(=O)N[C@@H](CCCNC(=N)N)C(=O)N[C@@H](CC(N)=O)C(=O)N[C@@H](C)C(=O)N[C@H](C(=O)N1CCC[C@H]1C(=O)N[C@@H](CCCNC(=N)N)C(=O)O)C(C)C)[C@@H](C)CC)C(C)C)[C@@H](C)CC` [LL-34—L31A] (H-LLGDFFRKSKEKIGKEFKRIVQRIKDFLRNAVPR-OH), the “Phosphorylation of TBK1 and IRF7” value is recorded as “Decreased phosphorylation”.
